From ChEMBL document CHEMBL6087405, “Discovery and optimization of anthraquinone derivatives containing substituted bisbenzyloxy groups as a novel scaffold damaged endoplasmic reticulum and against hepatocellular carcinoma cells” (Bioorg Med Chem, 2024)
Where a name gives a salt, the structure may show the parent alone. Peptide text beside a SMILES is read from it. * marks the point of attachment. Cbz = O=C(OCc1ccccc1)*

Columns and labels:
A549 = assay: Antiproliferative activity against human A549 cells measured after 48 hrs by MTT assay; assay type: functional, cell-based; conditions: A549, 48 h
MDA-MB-231 = assay: Antiproliferative activity against human MDA-MB-231 cells measured after 48 hrs by MTT assay; assay type: functional, cell-based; conditions: MDA-MB-231, 48 h
Huh-7 [1] = assay: Antiproliferative activity against human Huh-7 cells measured after 48 hrs by MTT assay; assay type: functional, cell-based; conditions: Huh-7, 48 h
Huh-7 [2] = assay: Induction of apoptosis in human Huh-7 cells assessed as late apoptotic cells at 20 uM measured after 48 hrs by Annexin V-PE staining based flow cytometry analysis (reference value: 2.06%); assay type: functional
Huh-7 [3] = assay: Induction of apoptosis in human Huh-7 cells assessed as necrotic cells at 20 uM measured after 48 hrs by Annexin V-PE staining based flow cytometry analysis (reference value: 3.37%); assay type: functional
Huh-7 [4] = assay: Induction of apoptosis in human Huh-7 cells assessed as early apoptotic cells at 20 uM measured after 48 hrs by Annexin V-PE staining based flow cytometry analysis (reference value: 0.88%); assay type: functional
Huh-7 [5] = assay: Induction of apoptosis in human Huh-7 cells assessed as viable cells at 20 uM measured after 48 hrs by Annexin V-PE staining based flow cytometry analysis (reference value: 93.69%); assay type: functional; conditions: read-out: Activity

Row | SMILES | IC50 (A549) | IC50 (MDA-MB-231) | IC50 (Huh-7 [1]) | Activity (Huh-7 [2]) | Activity (Huh-7 [3]) | Activity (Huh-7 [4]) | viability at 20 µM (Huh-7 [5])
1 | COc1ccc(COc2cccc3c2C(=O)c2c(OCc4ccc(OC)cc4)cc(C(=O)NCCCCCCO)cc2C3=O)cc1 | 3.49 µM | 0.97 µM | 1.13 µM | – | – | – | –
2 | COc1ccc(COc2cccc3c2C(=O)c2c(OCc4ccc(OC)cc4)cc(C(=O)NCCCO)cc2C3=O)cc1 | 3.55 µM | 1.94 µM | 1.69 µM | – | – | – | –
3 | O=C(NCCCO)c1cc(OCc2ccc(Cl)cc2)c2c(c1)C(=O)c1cccc(OCc3ccc(Cl)cc3)c1C2=O | > 100 µM | 6.36 µM | 5.87 µM | – | – | – | –
4 | COc1cccc2c1C(=O)c1c(O)c3c(c(O)c1C2=O)C[C@@](O)(C(=O)CO)C[C@@H]3O[C@H]1C[C@H](N)[C@H](O)[C@H](C)O1 [DOXORUBICIN HYDROCHLORIDE] | – | 3.14 µM | – | – | – | – | –
5 | O=C(NCCNCCO)c1cc(OCc2ccccc2)c2c(c1)C(=O)c1cccc(OCc3ccccc3)c1C2=O | 5.66 µM | 1.27 µM | 1.98 µM | – | – | – | –
6 | O=C(NCCCCCCO)c1cc(OCc2ccc(Cl)cc2)c2c(c1)C(=O)c1cccc(OCc3ccc(Cl)cc3)c1C2=O | > 100 µM | 5.73 µM | 36 µM | – | – | – | –
7 | Cc1ccc(COc2cccc3c2C(=O)c2c(OCc4ccc(C)cc4)cc(C(=O)NCCNCCO)cc2C3=O)cc1 | 4.76 µM | 0.91 µM | 1.96 µM | – | – | – | –
8 | O=C(NCCCCCO)c1cc(OCc2ccc(Cl)cc2)c2c(c1)C(=O)c1cccc(OCc3ccc(Cl)cc3)c1C2=O | > 100 µM | 16 µM | 51 µM | – | – | – | –
9 | COc1ccc(COc2cccc3c2C(=O)c2c(OCc4ccc(OC)cc4)cc(C(=O)NCCOCCO)cc2C3=O)cc1 | 17 µM | 18.5 µM | 9.24 µM | – | – | – | –
10 | O=C(NCCNCCO)c1cc(OCc2ccc(Cl)cc2)c2c(c1)C(=O)c1cccc(OCc3ccc(Cl)cc3)c1C2=O | > 100 µM | 2.24 µM | 40.4 µM | – | – | – | –
11 | Cc1ccc(COc2cccc3c2C(=O)c2c(OCc4ccc(C)cc4)cc(C(=O)NCCCCCO)cc2C3=O)cc1 | 12.3 µM | 2.48 µM | 5.08 µM | – | – | – | –
12 | O=C(O)c1cc(O)c2c(c1)C(=O)c1cccc(O)c1C2=O [RHEIN] | > 100 µM | > 100 µM | > 100 µM | – | – | – | –
13 | O=C(NCCOCCO)c1cc(OCc2ccccc2)c2c(c1)C(=O)c1cccc(OCc3ccccc3)c1C2=O | > 100 µM | 113 µM | 64.4 µM | – | – | – | –
14 | O=C(NCCO)c1cc(OCc2ccc(Cl)cc2)c2c(c1)C(=O)c1cccc(OCc3ccc(Cl)cc3)c1C2=O | 21.1 µM | 3.46 µM | 4.79 µM | – | – | – | –
15 | Cc1ccc(COc2cccc3c2C(=O)c2c(OCc4ccc(C)cc4)cc(C(=O)NCCOCCO)cc2C3=O)cc1 | > 100 µM | 6.14 µM | 14.9 µM | – | – | – | –
16 | COc1ccc(COc2cccc3c2C(=O)c2c(OCc4ccc(OC)cc4)cc(C(=O)NCCO)cc2C3=O)cc1 | 4.68 µM | 2.45 µM | 2.71 µM | – | – | – | –
17 | Cc1ccc(COc2cccc3c2C(=O)c2c(OCc4ccc(C)cc4)cc(C(=O)NCCCCCCO)cc2C3=O)cc1 | 7.81 µM | 2.36 µM | 4.83 µM | – | – | – | –
18 | Cc1ccc(COc2cccc3c2C(=O)c2c(OCc4ccc(C)cc4)cc(C(=O)NCCCO)cc2C3=O)cc1 | 5.79 µM | 1.15 µM | 3.75 µM | – | – | – | –
19 | O=C(NCCCCCCO)c1cc(OCc2ccccc2)c2c(c1)C(=O)c1cccc(OCc3ccccc3)c1C2=O | 62.5 µM | 2.82 µM | 8.87 µM | – | – | – | –
20 | Cc1ccc(COc2cccc3c2C(=O)c2c(OCc4ccc(C)cc4)cc(C(=O)NCCO)cc2C3=O)cc1 | 13.1 µM | 2.81 µM | 4.37 µM | – | – | – | –
21 | COc1ccc(COc2cccc3c2C(=O)c2c(OCc4ccc(OC)cc4)cc(C(=O)NCCCCO)cc2C3=O)cc1 | 5.04 µM | 0.86 µM | 0.34 µM | – | – | – | –
22 | O=C(NCCCCO)c1cc(OCc2ccc(Cl)cc2)c2c(c1)C(=O)c1cccc(OCc3ccc(Cl)cc3)c1C2=O | > 100 µM | 17.5 µM | 20.9 µM | – | – | – | –
23 | CC(C)[C@H](NC(=O)OCc1ccccc1)C(=O)N[C@@H](C)C(=O)N[C@@H](CC(=O)O)C(=O)O (Cbz-Val-Ala-Asp-OH) | – | – | – | 2.37% | 5.83% | 0.72% | 91.1%
24 | COc1ccc(COc2cccc3c2C(=O)c2c(OCc4ccc(OC)cc4)cc(C(=O)NCCCCCO)cc2C3=O)cc1 | 5 µM | 2.84 µM | 4.14 µM | – | – | – | –
25 | Cc1ccc(COc2cccc3c2C(=O)c2c(OCc4ccc(C)cc4)cc(C(=O)NCCCCO)cc2C3=O)cc1 | 3.36 µM | 1.29 µM | 1.98 µM | – | – | – | –
26 | CNC(=O)c1cc(Oc2ccc(NC(=O)Nc3ccc(Cl)c(C(F)(F)F)c3)cc2)ccn1 [SORAFENIB] | – | – | 6.53 µM | – | – | – | –
27 | O=C(NCCOCCO)c1cc(OCc2ccc(Cl)cc2)c2c(c1)C(=O)c1cccc(OCc3ccc(Cl)cc3)c1C2=O | > 100 µM | 7.1 µM | 50.1 µM | – | – | – | –
